Measured values published in patent publication US10799478B2, “Treatment of androgen deprivation therapy associated symptoms” (priority 2014, dated 2020).
Like-named read-outs stand apart in the source and are kept apart here.

Tests used:
[1] = Allometric prediction of human clearance, bioavailability and dose
dogs = assay: 6 month treatment of dogs (Table 10); assay type: in vivo, dog; conditions: 6 months
beagle dogs = assay: 52 Week Toxicity and Toxicokinetic Study in Dogs; assay type: in vivo, dog
Method: (§1) Male and female purebred beagle dogs are assigned to groups, and doses are administered according to Table 9 via oral capsules containing 1 ml/kg of 0 [1% (w/v) carboxymethylcellulose sodium (low viscosity/25-50 cps), 0.5% (w/v) sodium lauryl sulfate and 0.05% (v/v) Dow Corning® Antifoam 1510-US in reverse osmosis water] […] All animals receive the same number of capsules, and Group 1 animals receive capsules containing vehicle control article only. Three animals per sex from Groups 1 and 4 are designated as recovery animals.
(§2) Assessment of toxicity is based on mortality, clinical signs, body weight and body weight change, food consumption, ophthalmic and neurologic evaluations, ECG measurements, hormone analysis (testosterone, progesterone, luteinizing hormone, and follicle stimulating hormone), semen evaluation (ejaculate volume and sperm number, density, morphology, and motility), and clinical and anatomic pathology. Blood samples are collected for exploratory metabolite analysis and toxicokinetic evaluations.

[2] = 52 Week Toxicity and Toxicokinetic Study in Dogs; assay type: in vivo, dog; conditions: beagle, dog, in vivo; for Cmax / AUC(0-t): po
Method: as §1, §2

CC(C)OC(=O)N[C@H]1Cc2c(n(Cc3ccccn3)c3ccc(C#N)cc23)C1 (single isomer, unassigned) [Example 1]
predicted human bioavailability [1]: 49%
allometrically predicted human clearance ([1]; 90% CI 24 to 46): 33 Uh
Prostate weight (mean % decrease) (dogs; 3 mg/kg/day): ↓ 63%
Prostate weight (mean % decrease) (dogs; 30 mg/kg/day): ↓ 66%
Prostate weight (mean % decrease) (dogs; 300 mg/kg/day): ↓ 75%
survival until the scheduled sacrifice (beagle dogs; 3, 10, 100 mg/kg): All animals survived
Accumulation after multiple dosing (beagle dogs; dogs, 3 to 100 mg/kg): observed
NOAEL at 52 weeks ([2]; both sexes, oral, daily capsule, 52 weeks): 100 mg/kg
Cmax ([2]; female, females, 100 mg/kg, after 361 days of dosing): 1880 ng/mL
AUC(0-t) ([2]; female, females, 100 mg/kg, after 361 days of dosing, read-out: AUC0-24 h): 31500 ng·h/mL
AUC(0-t) ([2]; male, dogs, 12 months, 3 mg/kg/day, read-out: Male group mean AUC0-24 hr near termination): 3620 ng·h/mL
Cmax ([2]; male, males, 100 mg/kg, after 361 days of dosing): 1500 ng/mL
